Earlier results in PMC3145338 (Journal of the American Chemical Society, 2011).
pKd: −log10 of the molar value. Read-outs that look alike come from different tables or passages of the source. Marks after values point to notes of the source that are not given here.

Settings: BCA; for pKd: read-out: Kd^surf
[1] = SAM ligand 2, χ = 0.05, ref [Mrskich, 1995]
[2] = SAM ligand 2, ref [Lahiri, 1999a]
[3] = SAM ligand 2, ref [Lahiri, 1999b]

## BCA: bovine carbonic anhydrase
[1]
  koff^surf: 5.4 ^e 10^−3 s^−1
  kon^surf: 1.9 ^e 10^4 M^−1 s^−1
  ΔG°surf: −9.0 ^e kcal mol^−1
  pKd: 6.59
[2]
  koff^surf: 5.3 ^e 10^−3 s^−1
  kon^surf: 3.5 ^e 10^4 M^−1 s^−1
  ΔG°surf: −9.3 ^e kcal mol^−1
  pKd: 6.82
[3]
  koff^surf: 5.4 ^e 10^−3 s^−1
  kon^surf: 0.9 ^e 10^4 M^−1 s^−1
  ΔG°surf: −8.5 ^e kcal mol^−1
  pKd: 6.25
Mixed SAMs χ = 0.05, ref Mrksich et al. [10]
  koff^surf: 0.0054 s⁻¹
